In PubChem BioAssay AID1259411 (Chemical Carcinogenesis Research Information System (CCRIS), 2018) one finds carcinogen call data, which are given here for 6 compounds.

The source made the active and inactive calls. How the calls were made is not given here.

For this data set, the system named is rodent carcinogenicity bioassays, tumor incidence. Nature of the data set: CCRIS carcinogenicity studies. In short, it runs like this: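 NCI-built, expert-reviewed records of carcinogenicity and related test outcomes (mutagenicity, tumor promotion/inhibition) compiled from published and report sources, historical span 1985-2011, not updated.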

`CCCN(CCC)S(=O)(=O)c1ccc(C(=O)O)cc1`: the carcinogen call was “active; positive” (Species: MOUSE, Strain/Sex: B6C3F1/FEMALE, Route: GAVAGE, Dose: 0, 100, 400 MG/KG IN CORN OIL 5 D/WK FOR 103 WK (STUDY DURATION: 105 WK), Dose: 0, 100, 400 MG/KG IN CORN OIL 5 D/WK FOR 103 WK (STUDY DURATION: 105 WK), Tumor Site: Type of Lesion: LIVER: HEPATOCELLULAR ADENOMA OR CARCINOMA); “inactive; negative” (Species: MOUSE, Strain/Sex: B6C3F1/MALE, Route: GAVAGE, Dose: 0, 100, 400 MG/KG IN CORN OIL 5 D/WK FOR 103 WK (STUDY DURATION: 105 WK), Dose: 0, 100, 400 MG/KG IN CORN OIL 5 D/WK FOR 103 WK (STUDY DURATION: 105 WK)); “inactive; negative” (Species: RAT, Strain/Sex: F344/FEMALE, Route: GAVAGE, Dose: 0, 100, 400 MG/KG IN CORN OIL 5 D/WK FOR 103 WK (STUDY DURATION: 104 WK), Dose: 0, 100, 400 MG/KG IN CORN OIL 5 D/WK FOR 103 WK (STUDY DURATION: 104 WK)); “inactive; negative” (Species: RAT, Strain/Sex: F344/MALE, Route: GAVAGE, Dose: 0, 100, 400 MG/KG IN CORN OIL 5 D/WK FOR 103 WK (STUDY DURATION: 104 WK), Dose: 0, 100, 400 MG/KG IN CORN OIL 5 D/WK FOR 103 WK (STUDY DURATION: 104 WK)).

Turning to `Cc1cc(N)ccc1N`, the carcinogen call is, setting by setting: (Species: MOUSE, Strain/Sex: B6C3F1/FEMALE, Route: ORAL, Dose: 0, 0.06, 0.1% OF DIET, TWA, Dose: 0, 0.06, 0.1% OF DIET, TWA) “inactive; negative”; (Species: MOUSE, Strain/Sex: B6C3F1/MALE, Route: ORAL, Dose: 0, 0.06, 0.1% OF DIET, TWA, Dose: 0, 0.06, 0.1% OF DIET, TWA) “inactive; negative”; (Species: RAT, Strain/Sex: F344/FEMALE, Route: ORAL, Dose: 0, 0.06, 0.2% OF DIET, TWA, Dose: 0, 0.06, 0.2% OF DIET, TWA) “inactive; negative”; (Species: RAT, Strain/Sex: F344/MALE, Route: ORAL, Dose: 0, 0.06, 0.2% OF DIET, TWA, Dose: 0, 0.06, 0.2% OF DIET, TWA) “inactive; negative”.

Regarding `c1ccc2c3c(ccc2c1)-c1cccc2cccc-3c12`, the carcinogen call is “active; positive” (Species: MOUSE, Route: DERMAL, Tumor Site: Type of Lesion: INTEGUMENTARY SYSTEM (SKIN)); “active; positive” (Species: MOUSE, Strain/Sex: CD-1/FEMALE, Route: INTRAPERITONEAL, Dose: 0, 0.11, 0.275, 1.1 UMOL (TOTAL DOSE) ADMINISTERED OVER DAYS 1, 8, AND 15 OF LIFE (STUDY DURATION: 52 WEEKS), Dose: 0, 0.11, 0.275, 1.1 UMOL (TOTAL DOSE) ADMINISTERED OVER DAYS 1, 8, AND 15 OF LIFE (STUDY DURATION: 52 WEEKS), Tumor Site: Type of Lesion: LUNG: ALVEOLAR/BRONCHIOLAR CARCINOMA); “active; positive” (Species: MOUSE, Strain/Sex: CD-1/MALE, Route: INTRAPERITONEAL, Dose: 0, 0.11, 0.275, 1.1 UMOL (TOTAL DOSE) ADMINISTERED OVER DAYS 1, 8, AND 15 OF LIFE (STUDY DURATION: 52 WEEKS), Dose: 0, 0.11, 0.275, 1.1 UMOL (TOTAL DOSE) ADMINISTERED OVER DAYS 1, 8, AND 15 OF LIFE (STUDY DURATION: 52 WEEKS), Tumor Site: Type of Lesion: LUNG: ALVEOLAR/BRONCHIOLAR CARCINOMA, LIVER: ADENOMA OR CARCINOMA); “active; positive” (Species: RAT, Strain/Sex: OSBORNE-MENDEL/FEMALE, Route: LUNG IMPLANT, Dose: 0, 0.2, 1.0, 5.0 MG IN BEESWAX/TRIOCTANOIN (STUDY DURATION: LIFETIME), Dose: 0, 0.2, 1.0, 5.0 MG IN BEESWAX/TRIOCTANOIN (STUDY DURATION: LIFETIME), Tumor Site: Type of Lesion: LUNG: EPIDERMOID CARCINOMA).

`O=[As]O`: the carcinogen call (Species: Mouse, Strain/Sex: C3H/10 pregnant dams/group, 25 male and 25 female offspring per group assigned at 4 wks of age, Route: Oral, Dose: 0, 42.5, 85 ppm in drinking water of dams, offspring followed for 90 wks, Tumor Site: Type of Lesion: Hepatocellular carcinoma in offspring) was “active; positive”; the carcinogen call (Species: Mouse, Strain/Sex: C3H/Female offspring, Route: Oral, Dose: 0, 85 ppm (in drinking water of dam) in utero) is “inactive; negative”; the carcinogen call (Species: Mouse, Strain/Sex: C3H/Female offspring, Route: Oral, Dose: 0, 85 ppm in drinking water post pubescence (PND 56) to 365 days) is “inactive; negative (hyperplasia only, no tumors)”; the carcinogen call (Species: Mouse, Strain/Sex: C3H/Female offspring, Route: Oral, Dose: 0, 85 ppm in drinking water prior to pubescence (PND 21) to 365 days) is “inactive; negative (hyperplasia only, no increase in tumors)”; the carcinogen call (Species: Mouse, Strain/Sex: C3H/Female offspring, Route: Oral, Dose: 0, 85 ppm in utero and in drinking water to 365 days) is “inactive; negative”; the carcinogen call (Species: Mouse, Strain/Sex: C3H/HeNCr F344/ Male and female (25-35/Group as offspring of 10 dams per exposure level), Route: Drinking water, Dose: 0, 42.5, 85 ppm ad lib on gestation days 8-18, study duration for offspring 90 wks, Tumor Site: Type of Lesion: Male offspring: Liver: hepatocellular carcinoma (statistically significant increase in incidence and multiplicity), Adre) was “active; positive”. The carcinogen call is, setting by setting: (Species: Mouse, Strain/Sex: C3H/Male offspring, Route: Oral, Dose: 0, 85 ppm (in drinking water of dam) in utero) “inactive; negative”; (Species: Mouse, Strain/Sex: C3H/Male offspring, Route: Oral, Dose: 0, 85 ppm in drinking water post pubescence (PND 56) to 365 days) “inactive; negative (decreased incidence of spontaneous tumors)”; (Species: Mouse, Strain/Sex: C3H/Male offspring, Route: Oral, Dose: 0, 85 ppm in drinking water prior to pubescence (PND 21) to 365 days) “inactive; negative (decreased incidence of spontaneous tumors)”; (Species: Mouse, Strain/Sex: C3H/Male offspring, Route: Oral, Dose: 0, 85 ppm in utero and in drinking water to 365 days, Tumor Site: Type of Lesion: Liver: adenoma and carcinoma (30%, 0%)) “active; positive”.

Consider `ONc1ccc2ccccc2c1`, for which the carcinogen call was “active; positive” (Species: DOG, Strain/Sex: BEAGLE, Route: INTRAVESICULAR, Dose: 5 MG IN DMSO EVERY TWO WK FOR 30 MO, Tumor Site: Type of Lesion: URINARY BLADDER: PAPILLARY TRANSITIONAL CELL CARCINOMA (INVASIVE)); “active; positive” (Species: MOUSE, Strain/Sex: BALB, Route: SUBCUTANEOUS, Dose: 100 UG IN AQUEOUS GELATIN 1/D FOR 5 D, Tumor Site: Type of Lesion: LUNG: ADENOMA); “active; positive” (Species: MOUSE, Strain/Sex: SWISS/FEMALE, Route: SUBCUTANEOUS, Dose: 100 UG IN GELATIN ON D 1, 3 AND 5 OF LIFE, Tumor Site: Type of Lesion: LUNG: ADENOMA, CARCINOMA); “active; positive” (Species: MOUSE, Strain/Sex: SWISS/MALE, Route: SUBCUTANEOUS, Dose: 100 UG IN GELATIN ON D 1, 3 AND 5 OF LIFE, Tumor Site: Type of Lesion: LIVER: HEPATOMA); “active; positive” (Species: RAT, Strain/Sex: STRAIN-CB/MALE, Route: INTRAPERITONEAL, Dose: 50 MG/KG IN ARACHIS OIL 2/WK FOR 3 MO, Tumor Site: Type of Lesion: PERITONEAL CAVITY: SARCOMA, CARCINOMA).

With `Clc1cc2c(c(Cl)c1Cl)Oc1c(Cl)c(Cl)c(Cl)c(Cl)c1O2`, the carcinogen call runs as follows: (Species: RAT, Strain/Sex: SPRAGUE-DAWLEY/FEMALE (30), Route: ORAL, GAVAGE IN CORN OIL, Dose: 2.5 MG/KG BW PLUS 0.63 MG/KG 0N D 150, TOTAL DOSE 3.1 MG/KG (STUDY DURATION: LIFESPAN), Tumor Site: Type of Lesion: LIVER: CARCINOMA) “active; positive”; (Species: RAT, Strain/Sex: SPRAGUE-DAWLEY/FEMALE (30), Route: ORAL, GAVAGE IN CORN OIL, Dose: 2.5 MG/KG BW PLUS 0.63 MG/KG ON D 150, TOTAL DOSE 3.1 MG/KG (STUDY DURATION: LIFESPAN), Tumor Site: Type of Lesion: LUNG: CARCINOMA) “active; positive”; (Species: RAT, Strain/Sex: SPRAGUE-DAWLEY/FEMALE (30), Route: ORAL, GAVAGE IN CORN OIL, Dose: 2.8 MG/KG BW PLUS 0.086 MG/KG EVERY OTHER WK FOR LIFESPAN, TOTAL DOSE 4.6 MG/KG (STUDY DURATION: LIFESPAN), Tumor Site: Type of Lesion: LUNG: CARCINOMA) “active; positive”; (Species: RAT, Strain/Sex: SPRAGUE-DAWLEY/FEMALE, Route: ORAL, GAVAGE IN CORN OIL, Dose: 0, 1.0, 2.8, 3.1, 3.4, 3.8, 4.1 MG/KG BW ONCE (STUDY DURATION: LIFESPAN), Dose: 0, 1.0, 2.8, 3.1, 3.4, 3.8, 4.1 MG/KG BW ONCE (STUDY DURATION: LIFESPAN), Tumor Site: Type of Lesion: LIVER: CARCINOMA) “active; positive at higher doses”; (Species: RAT, Strain/Sex: SPRAGUE-DAWLEY/FEMALE, Route: ORAL, GAVAGE IN CORN OIL, Dose: 0, 1.0, 2.8, 3.1, 3.4, 3.8, 4.1 MG/KG BW ONCE (STUDY DURATION: LIFESPAN), Dose: 0, 1.0, 2.8, 3.1, 3.4, 3.8, 4.1 MG/KG BW ONCE (STUDY DURATION: LIFESPAN), Tumor Site: Type of Lesion: LUNG: CARCINOMA) “active; positive”.
